Data published in patent US11464810B2, “Ascaroside treatment of eosinophilic esophagitis” (California Institute of Technology, priority 2016, dated 2022).

Key:
IL-6 = IL-6 secretion by bone marrow-derived dendritic cells, ELISA; format: cell-based, mouse; settings: different concentrations of ascr#7
Method: (§1) Bone marrow was extracted from femurs of C57BL/6 mice (6-12 weeks of age). These mice were euthanized by CO2 inhalation and their femurs were removed. After removing the remaining flesh from the bone, they were cut at the metaphysis. Bone marrow was flushed out using a syringe filled with RPMI. The extracted marrow was further broken down by resuspension with syringe. The mixture was centrifuged and the pellet was re-suspended in RPMI. […] 20 ng of GM-CSF was added to each well. At day 3, and every 3 days thereafter, the media was replaced. Cells were used for experiments between day 7-9.
(§2) Bone marrow dendritic cells were collected between day 7-9 of culture. Cells were washed twice and counted. Ascr#7 in water or RPMI were placed in corresponding wells, and are allowed to dry. 10^6 cells were then plated in each well in a 24 well culture plate. Cells were left to incubate with ascr#7 for 5 minutes. Following the brief incubation, different TNFα was added to the wells. These bone marrow dendritic cells were then cultured at 37° C. for 18-72 hours. Cells were collected via the pellet generated by centrifuge. The supernatant was also preserved. EBioscience ELISA kits was used to determine the concentration of different cytokines present in each well.

[1] = tested on: ovalbumin model of murine asthma; assay: ovalbumin model of murine asthma; format: in vivo, mouse; settings: C57BL/6 mice
Method: Adult C57BL/6 mice were sensitized by administering 2 ug OVA (Sigma-Aldrich) and 1 mg alum (Thermo) with 50ng ascr#7 or saline, via intraperitoneal injection, on Day 0 and 14. On day 24, the mice were challenged with intranasal administration of saline containing 100 μg OVA, under isoflurane anesthesia. Histologic sections were stained with H&E or PAS to score for eosinophilia, goblet cell metaplasia, and airway hyper-reactivity. Mice were also placed in a computer controlled small animal ventilator (SCIREQ) to score for airway hyper-reactivity following methacholine challenge. […] Animals with asthma have higher resistance of flow, which would be represented as higher “RL” values in FIG. 3B-FIG. 3F. […] Lungs were collected, postmortem, and then sectioned and stained to show the presence of eosinophils and mucus. […] In FIG. 3G, the asthmatic mouse lung, here labeled “Asthma” has a large number of mucus and eosinophils that surround the bronchioles and occupy the alveolar space; wherein the thick barriers would prohibit oxygen from easily diffusing.

[2] = tested on: T cell transfer model of colitis; assay: T cell transfer model of colitis (immune dysregulation model of inflammatory bowel disease); format: in vivo, mouse; settings: Rag −/− mice, 300 ng ascr#7 intraperitoneal every 3 days between day 14 and day 28
Method: A T cell transfer model of colitis where 10^6 CD4+ T cells were transferred to adult Rag −/− mice was used, and either saline or 300 ng ascr#7 were administered via intraperitoneal injection every 3 days between day 14 and day 28. On day 28, the mice were euthanized and colon analysis was performed. n=3 mice per group. […] The normal mouse colon is long, skinny, and has discrete fecal pellets. The diseased mouse colon, with IBD, has a shortened, dilated colon, with diarrhea instead of discrete fecal pellets.

IL-1β = IL-1β secretion by bone marrow-derived dendritic cells, ELISA; format: cell-based, mouse; settings: different concentrations of ascr#7
Method: as §1, §2

[3] = 50ng ascr#7 intraperitoneal on Day 0 and 14, H&E or PAS sections

C[C@H](CC/C=C/C(=O)O)O[C@@H]1O[C@@H](C)[C@H](O)C[C@H]1O [ascr#7]
IL-6 levels (IL-6; dendritic cells not stimulated with TNF-α, FIG. 1 left side): very low levels of IL-6
secreted IL-6 levels (IL-6; dendritic cells stimulated with TNF-α, FIG. 1 right side): reduces these levels significantly
development of eosinophilia [1, 3]: reduces the development of
development of goblet cell metaplasia [1, 3]: reduces the development of
lung histology (eosinophils and mucus; boundaries between bronchioles and alveolar space) ([1]; 50ng ascr#7 intraperitoneal on Day 0 and 14, stained lung sections, FIG. 3G): thin boundaries between the bronchioles and the alveolar space, comparable to the normal mice
resistance of air flow (RL), airway hyper-reactivity following methacholine challenge ([1]; 50ng ascr#7 intraperitoneal on Day 0 and 14 with OVA/alum, FIG. 3B-3F): low resistance of air flow, with comparable levels to normal mice
development of abnormal lumen dilation [2]: markedly reduces the development of
development of colon shortening [2]: markedly reduces the development of
development of diarrhea [2]: markedly reduces the development of
colon appearance (length, dilation, fecal pellets) ([2]; colon analysis day 28, FIG. 4): normal appearing colon, which is long, skinny, and contains discrete fecal pellets
IL-1β levels (IL-1β; dendritic cells not stimulated with TNF-α, FIG. 2 left side): very low levels of IL-1β
secreted IL-1β levels (IL-1β; dendritic cells stimulated with TNF-α, FIG. 2 right side): reduces these levels significantly
